According to PMC6522510 (Nature Communications, 2019):
Where two headings read alike, the source gives them in different places.

Tests used:
MV4-11 [1] = assay: Secondary dose-response HTS, Cell Titer Glo; format: cell-based, human
ML2 = assay: Secondary dose-response HTS, Cell Titer Glo; format: cell-based, human
MOLM-13 = assay: Secondary dose-response HTS, Cell Titer Glo; format: cell-based, human; conditions: secondary high-throughput screen, MOLM-13; for EC50: Homo sapiens, read-out: average effective concentration, MOLM-13
CHRF288-11 = assay: Secondary dose-response HTS, Cell Titer Glo; format: cell-based, human; conditions: secondary high-throughput screen, CHRF288-11; for EC50: Homo sapiens, HTS, read-out: average effective concentration, CHRF288-11
CMK = assay: Secondary dose-response HTS, Cell Titer Glo; format: cell-based, human; conditions: secondary high-throughput screen, CMK; for EC50: Homo sapiens, read-out: average effective concentration, CMK
U937 = assay: Secondary dose-response HTS, Cell Titer Glo; format: cell-based, human; conditions: secondary high-throughput screen, U937; for EC50: Homo sapiens, U-937, read-out: average effective concentration, U937
CMS = assay: cells; set-up: species or system AML cell lines (8); Secondary HTS, 10-point dose-response in triplicate, Cell Titer Glo viability, four-parameter fit EC50; conditions: 72 h, read-out: CMS
M07e = assay: cells; set-up: species or system AML cell lines (8); Secondary HTS, 10-point dose-response in triplicate, Cell Titer Glo viability, four-parameter fit EC50; conditions: M-07e, 72 h, read-out: M07e
MV4-11 [2] = assay: cells; set-up: species or system AML cell lines (8); Secondary HTS, 10-point dose-response in triplicate, Cell Titer Glo viability, four-parameter fit EC50; conditions: Homo sapiens, MV4-11, 72 h, read-out: MV4-11
[3] = secondary high-throughput screen, MV4-11
[4] = secondary high-throughput screen, ML-2
[5] = Homo sapiens, secondary high-throughput screen, MV4-11, read-out: average effective concentration, MV4-11
[6] = Homo sapiens, secondary high-throughput screen, ML-2, read-out: average effective concentration, ML-2

`COc1ccc(C[C@H](NC(=O)[C@H](C)NC(=O)CN2CCOCC2)C(=O)N[C@@H](Cc2ccccc2)C(=O)C2(C)CO2)cc1` (stereo in doubt) [ONX-0914, reference compound] showed an EC50 (MV4-11 [1]; secondary HTS, 72 h, average of triplicate, read-out: EC50 MV4-11) of 0.05 µM and an EC50 (ML2; secondary HTS, 72 h, average of triplicate, read-out: EC50 ML2) of 0.04 µM.

In the case of `COc1cc(O)c2c(c1)/C=C/C[C@H](O)[C@H](O)C(=O)/C=C\C[C@H](C)OC2=O` [(5Z)-7-OXOZEAENOL], the “average effective concentration, MOLM-13” value (MOLM-13) is reported as “Inactive” and the “average effective concentration, MV4-11” value (MV4-11 [1]; [3]) is reported as “Inactive”.

`N#C/C(=C\c1ccc(-c2cc(Cl)ccc2Cl)o1)C(=O)Nc1cccc2ncccc12` [AGK 2] was tested, and the “average effective concentration, MOLM-13” value (MOLM-13) was “Inactive”, the “average effective concentration, MV4-11” value (MV4-11 [1]; [3]) was “Inactive” and the “average effective concentration, CHRF288-11” value (CHRF288-11) was “Inactive”. The “average effective concentration, CMK” value (CMK) was “Inactive” and the “average effective concentration, ML-2” value (ML2; [4]) was “Inactive”.

`COc1cc(N2CCC(N3CCN(C)CC3)CC2)ccc1Nc1ncc(Cl)c(Nc2ccccc2P(C)(C)=O)n1` [AP26113] was tested, and the EC50 (MOLM-13) was 0.26 µM, the EC50 (MV4-11 [1]; [5]) was 0.6 µM and the EC50 (CHRF288-11) was 6 µM. For the same compound, the EC50 (CMK) was 6.5 µM, the EC50 (ML2; [6]) was 4 µM and the EC50 (U937) was 7.8 µM. For the same compound, the EC50 (CMS) was > 10 µM and the EC50 (M07e) was > 10 µM.

`CNC(=O)c1ccccc1Sc1ccc2c(/C=C/c3ccccn3)n[nH]c2c1` [AXITINIB] showed an EC50 (MV4-11 [1]; [5]) of 1.1 µM.

For `Cn1cccc1/C=C1\C(=O)NC(=O)c2ccccc21` [BYK 204165], the “average effective concentration, CMK” value (CMK) was “Inactive”.

`C=CC(=O)Nc1cccc(Nc2nc(Nc3ccc(OCCOC)cc3)ncc2F)c1` [CC-292 (AVL-292)] was tested, and the “average effective concentration, MOLM-13” value (MOLM-13) was “Inactive”, the “average effective concentration, MV4-11” value (MV4-11 [1]; [3]) was “Inactive” and the “average effective concentration, CHRF288-11” value (CHRF288-11) was “Inactive”.

`CS(=O)(=O)N1CCc2c(-c3cnc(N)nc3)nc(N3CCOCC3)nc21` [CH-5132799] gave an EC50 (MOLM-13) of 2.5 µM, an EC50 (MV4-11 [1]; [5]) of 3.9 µM and an EC50 (CHRF288-11) of 9.4 µM. It also gave an EC50 (CMK) of 1.5 µM, an EC50 (ML2; [6]) of 6.9 µM and an EC50 (U937) of 4 µM. For the same compound, the EC50 (CMS) was > 10 µM and the EC50 (M07e) was > 10 µM.

With `Br.Cc1cc2nc(NCCCO)n(CC(=O)c3cc(C(C)(C)C)c(O)c(C(C)(C)C)c3)c2cc1C` [CID-2858522] the “average effective concentration, MOLM-13” value (MOLM-13) was “Inactive”, the “average effective concentration, MV4-11” value (MV4-11 [1]; [3]) was “Inactive” and the “average effective concentration, CHRF288-11” value (CHRF288-11) was “Inactive”. For the same compound, the “average effective concentration, CMK” value (CMK) was “Inactive”.

In the case of `COc1cc2ncnc(-n3nc(-c4ccccn4)nc3N)c2cc1OC` [CP-466722], the “average effective concentration, MOLM-13” value (MOLM-13) is reported as “Inactive”, the “average effective concentration, MV4-11” value (MV4-11 [1]; [3]) is reported as “Inactive” and the “average effective concentration, CHRF288-11” value (CHRF288-11) is reported as “Inactive”. The “average effective concentration, CMK” value (CMK) was “Inactive”, the “average effective concentration, ML-2” value (ML2; [4]) was “Inactive” and the “average effective concentration, U937” value (U937) was “Inactive”.

In the case of `COc1ccc(-c2nc(N3CCOCC3)c3sc(CN(C)c4ncc(C(=O)NO)cn4)cc3n2)cn1` [CUDC-907], the EC50 (MV4-11 [2]) is reported as 0.00021 µM.

For `Cc1cc(Cl)ccc1OCCCC(=O)NO` [DROXINOSTAT], the “average effective concentration, MOLM-13” value (MOLM-13) was “Inactive”, the “average effective concentration, MV4-11” value (MV4-11 [1]; [3]) was “Inactive” and the “average effective concentration, CMK” value (CMK) was “Inactive”. The “average effective concentration, ML-2” value (ML2; [4]) was “Inactive” and the “average effective concentration, U937” value (U937) was “Inactive”.

Compound `CN(C)C1CCN(C(=O)c2ccc(NC(=O)Nc3ccc(-c4nc(N5CCOCC5)nc(N5CCOCC5)n4)cc3)cc2)CC1` [Gedatolisib] has an EC50 (MOLM-13) of 0.19 µM, an EC50 (MV4-11 [1]; [5]) of 0.047 µM and an EC50 (CMK) of 7.7 µM. The EC50 (U937) was 0.024 µM.

With `C[C@@H]1NC(=O)[C@H]2CCCN2C(=O)[C@H](CCCCCC(=O)[C@@H]2CO2)NC(=O)[C@@H](C)NC1=O` [HC TOXIN] the “average effective concentration, MV4-11” value (MV4-11 [1]; [3]) was “Inactive” and the “average effective concentration, CMK” value (CMK) was “Inactive”.

For `CCNC(=O)C[C@@H]1N=C(c2ccc(Cl)cc2)c2cc(OC)ccc2-n2c(C)nnc21` [I-BET-762], the “average effective concentration, CHRF288-11” value (CHRF288-11) was “Inactive” and the “average effective concentration, CMK” value (CMK) was “Inactive”.

`O=C(c1ccc(Nc2nccc(-c3cc4ccccc4s3)n2)cc1)N1CCC(N2CCCC2)CC1` [IKK 16] was tested, and the “average effective concentration, MOLM-13” value (MOLM-13) was “Inactive” and the “average effective concentration, MV4-11” value (MV4-11 [1]; [3]) was “Inactive”.

`Cc1ccc(NCCCc2ccccc2)c(N)c1` [JSH-23] was tested, and the “average effective concentration, MOLM-13” value (MOLM-13) was “Inactive” and the “average effective concentration, MV4-11” value (MV4-11 [1]; [3]) was “Inactive”.

With `CCN1CCN(CC(=O)Nc2ccc(-c3cccc4c(=O)cc(N5CCOCC5)oc34)c3sc4ccccc4c23)CC1` [KU-0060648] the “average effective concentration, MV4-11” value (MV4-11 [1]; [3]) was “Inactive”.

For `CO[C@@H]1[C@H](N(C)C(=O)c2ccccc2)C[C@H]2O[C@]1(C)n1c3ccccc3c3c4c(c5c6ccccc6n2c5c31)C(=O)NC4` [MIDOSTAURIN], the EC50 (MOLM-13) was 0.065 µM and the EC50 (ML2; [6]) was 0.017 µM.

For `CC(C)C(=O)SCCCCCCC(=O)Nc1nc(-c2ccccc2)cs1` [NCH 51], the “average effective concentration, MV4-11” value (MV4-11 [1]; [3]) was “Inactive” and the “average effective concentration, CMK” value (CMK) was “Inactive”.
